# Measured values reported in patent US8530667B2, “Herbicides” (Syngenta Limited, priority 2007, dated 2013).
# Tested on: Avena fatua (AVEFA)
# Experiment: Example B post-emergence herbicidal activity, glasshouse pot test
# Type: in vivo
# Settings: 312 h, rate 1000 g/ha, evaluated after 13 days, read-out: Post-emergence activity AVEFA (100=total damage to plant; 0=no damage to plant)
# Method in brief: (§1)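 Visual damage (0 = no damage, 100 = total damage) read 13 days after spraying. Application was to pots 1 day (pre-emergence) or 8 days (post-emergence) after sowing, as an aqueous spray from acetone/water (50:50) with 0.5% Tween 20.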
row,Compound,pest or weed control at 1000 g/ha
1,COc1ccc(-c2nc(C3C(=O)[C@@H]4[C@H](C3=O)[C@H]3CC[C@@H]4O3)c(C)s2)cc1 (some centres unmarked) [Compound T21],100%

# Tested on: Amaranthus retoflexus (AMARE)
# Experiment: as above
# Type: in vivo
# Settings: Amaranthus retroflexus, 312 h, rate 1000 g/ha, evaluated after 13 days, read-out: Post-emergence activity AMARE (100=total damage to plant; 0=no damage to plant)
# Method in brief: as §1
row,Compound,pest or weed control at 1000 g/ha
1,COc1ccc(-c2nc(C3C(=O)[C@@H]4[C@H](C3=O)[C@H]3CC[C@@H]4O3)c(C)s2)cc1 (some centres unmarked) [Compound T21],0%

# Tested on: Alopecurus myosuroides (ALOMY)
# Experiment: as above
# Type: in vivo
# Settings: 312 h, rate 1000 g/ha, evaluated after 13 days, read-out: Post-emergence activity ALOMY (100=total damage to plant; 0=no damage to plant)
# Method in brief: as §1
row,Compound,pest or weed control at 1000 g/ha
1,COc1ccc(-c2nc(C3C(=O)[C@@H]4[C@H](C3=O)[C@H]3CC[C@@H]4O3)c(C)s2)cc1 (some centres unmarked) [Compound T21],100%

# Tested on: Echinochloa crus-galli (ECHCG)
# Experiment: as above
# Type: in vivo
# Settings: 312 h, rate 1000 g/ha, evaluated after 13 days, read-out: Post-emergence activity ECHCG (100=total damage to plant; 0=no damage to plant)
# Method in brief: as §1
row,Compound,pest or weed control at 1000 g/ha
1,COc1ccc(-c2nc(C3C(=O)[C@@H]4[C@H](C3=O)[C@H]3CC[C@@H]4O3)c(C)s2)cc1 (some centres unmarked) [Compound T21],100%

# Tested on: Setaria faberi (SETFA)
# Experiment: as above
# Type: in vivo
# Settings: 312 h, rate 1000 g/ha, evaluated after 13 days, read-out: Post-emergence activity SETFA (100=total damage to plant; 0=no damage to plant)
# Method in brief: as §1
row,Compound,pest or weed control at 1000 g/ha
1,COc1ccc(-c2nc(C3C(=O)[C@@H]4[C@H](C3=O)[C@H]3CC[C@@H]4O3)c(C)s2)cc1 (some centres unmarked) [Compound T21],100%

# Tested on: Avena fatua (AVEFA)
# Experiment: Example A post-emergence herbicidal activity, glasshouse pot test
# Type: in vivo
# Settings: Rate 125 g/ha, evaluated 14 or 15 days later, read-out: Post-Emergence Activity AVEFA (100=total damage to plant; 0=no damage to plant)
# Experimental: (§2) Seeds of a variety of test species were sown in standard soil in pots. After cultivation for one day (pre-emergence) or after 10 days cultivation (post-emergence) under controlled conditions in a glasshouse, the plants were sprayed with an aqueous spray solution derived from the formulation of the technical active ingredient in 0.6 ml acetone and 45 ml formulation solution containing 10.6% Emulsogen EL (Registry number 61791-12-6), 42.2% N-methylpyrrolidone, 42.2% dipropylene glycol monomethyl ether (Registry number 34590-94-8) and 0.2% X-77 (Registry number 11097-66-8). The test plants were then grown in a greenhouse under optimum conditions until, 14 or 15 days later for post-emergence and 19 or 20 days for pre-emergence, the test was evaluated (100=total damage to plant; 0=no damage to plant). Alopecurus myosuroides (ALOMY), Avena fatua (AVEFA), Lolium perenne (LOLPE), Setaria faberi (SETFA), Digitaria sanguinalis (DIGSA), Echinochloa crus-galli (ECHCG)
row,Compound,pest or weed control at 125 g/ha
1,COc1ccc(-c2nc(C3C(=O)[C@@H]4[C@H](C3=O)[C@H]3CC[C@@H]4O3)c(C)s2)cc1 (some centres unmarked) [Compound T21],20%
2,CCc1sc(-c2ccc(Cl)cc2)nc1C1C(=O)[C@@H]2[C@H](C1=O)[C@@]1(C)CC[C@]2(C)O1 (some centres unmarked) [Compound T27],90%

# Tested on: Alopecurus myosuroides (ALOMY)
# Experiment: as above
# Type: in vivo
# Settings: Rate 125 g/ha, evaluated 14 or 15 days later, read-out: Post-Emergence Activity ALOMY (100=total damage to plant; 0=no damage to plant)
# Experimental: as §2
row,Compound,pest or weed control at 125 g/ha
1,COc1ccc(-c2nc(C3C(=O)[C@@H]4[C@H](C3=O)[C@H]3CC[C@@H]4O3)c(C)s2)cc1 (some centres unmarked) [Compound T21],50%
2,CCc1sc(-c2ccc(Cl)cc2)nc1C1C(=O)[C@@H]2[C@H](C1=O)[C@@]1(C)CC[C@]2(C)O1 (some centres unmarked) [Compound T27],80%

# Tested on: Lolium perenne (LOLPE)
# Experiment: as above
# Type: in vivo
# Settings: Rate 125 g/ha, evaluated 14 or 15 days later, read-out: Post-Emergence Activity LOLPE (100=total damage to plant; 0=no damage to plant)
# Experimental: as §2
row,Compound,pest or weed control at 125 g/ha
1,COc1ccc(-c2nc(C3C(=O)[C@@H]4[C@H](C3=O)[C@H]3CC[C@@H]4O3)c(C)s2)cc1 (some centres unmarked) [Compound T21],40%
2,CCc1sc(-c2ccc(Cl)cc2)nc1C1C(=O)[C@@H]2[C@H](C1=O)[C@@]1(C)CC[C@]2(C)O1 (some centres unmarked) [Compound T27],40%

# Tested on: Echinochloa crus-galli (ECHCG)
# Experiment: as above
# Type: in vivo
# Settings: Rate 125 g/ha, evaluated 14 or 15 days later, read-out: Post-Emergence Activity ECHCG (100=total damage to plant; 0=no damage to plant)
# Experimental: as §2
row,Compound,pest or weed control at 125 g/ha
1,COc1ccc(-c2nc(C3C(=O)[C@@H]4[C@H](C3=O)[C@H]3CC[C@@H]4O3)c(C)s2)cc1 (some centres unmarked) [Compound T21],100%
2,CCc1sc(-c2ccc(Cl)cc2)nc1C1C(=O)[C@@H]2[C@H](C1=O)[C@@]1(C)CC[C@]2(C)O1 (some centres unmarked) [Compound T27],100%

# Tested on: Setaria faberi (SETFA)
# Experiment: as above
# Type: in vivo
# Settings: Rate 125 g/ha, evaluated 14 or 15 days later, read-out: Post-Emergence Activity SETFA (100=total damage to plant; 0=no damage to plant)
# Experimental: as §2
row,Compound,pest or weed control at 125 g/ha
1,COc1ccc(-c2nc(C3C(=O)[C@@H]4[C@H](C3=O)[C@H]3CC[C@@H]4O3)c(C)s2)cc1 (some centres unmarked) [Compound T21],80%
2,CCc1sc(-c2ccc(Cl)cc2)nc1C1C(=O)[C@@H]2[C@H](C1=O)[C@@]1(C)CC[C@]2(C)O1 (some centres unmarked) [Compound T27],80%

# Tested on: Digitaria sanguinalis (DIGSA)
# Experiment: as above
# Type: in vivo
# Settings: Rate 125 g/ha, evaluated 14 or 15 days later, read-out: Post-Emergence Activity DIGSA (100=total damage to plant; 0=no damage to plant)
# Experimental: as §2
row,Compound,pest or weed control at 125 g/ha
1,COc1ccc(-c2nc(C3C(=O)[C@@H]4[C@H](C3=O)[C@H]3CC[C@@H]4O3)c(C)s2)cc1 (some centres unmarked) [Compound T21],80%
2,CCc1sc(-c2ccc(Cl)cc2)nc1C1C(=O)[C@@H]2[C@H](C1=O)[C@@]1(C)CC[C@]2(C)O1 (some centres unmarked) [Compound T27],100%

# Tested on: Avena fatua (AVEFA)
# Experiment: Example A pre-emergence herbicidal activity, glasshouse pot test
# Type: in vivo
# Settings: Rate 250 g/ha, evaluated 19 or 20 days later, read-out: Pre-Emergence Activity AVEFA (100=total damage to plant; 0=no damage to plant)
# Experimental: as §2
row,Compound,pest or weed control at 250 g/ha
1,COc1ccc(-c2nc(C3C(=O)[C@@H]4[C@H](C3=O)[C@H]3CC[C@@H]4O3)c(C)s2)cc1 (some centres unmarked) [Compound T21],70%
2,CCc1sc(-c2ccc(Cl)cc2)nc1C1C(=O)[C@@H]2[C@H](C1=O)[C@@]1(C)CC[C@]2(C)O1 (some centres unmarked) [Compound T27],60%

# Tested on: Alopecurus myosuroides (ALOMY)
# Experiment: as above
# Type: in vivo
# Settings: Rate 250 g/ha, evaluated 19 or 20 days later, read-out: Pre-Emergence Activity ALOMY (100=total damage to plant; 0=no damage to plant)
# Experimental: as §2
row,Compound,pest or weed control at 250 g/ha
1,COc1ccc(-c2nc(C3C(=O)[C@@H]4[C@H](C3=O)[C@H]3CC[C@@H]4O3)c(C)s2)cc1 (some centres unmarked) [Compound T21],90%
2,CCc1sc(-c2ccc(Cl)cc2)nc1C1C(=O)[C@@H]2[C@H](C1=O)[C@@]1(C)CC[C@]2(C)O1 (some centres unmarked) [Compound T27],70%

# Tested on: Lolium perenne (LOLPE)
# Experiment: as above
# Type: in vivo
# Settings: Rate 250 g/ha, evaluated 19 or 20 days later, read-out: Pre-Emergence Activity LOLPE (100=total damage to plant; 0=no damage to plant)
# Experimental: as §2
row,Compound,pest or weed control at 250 g/ha
1,COc1ccc(-c2nc(C3C(=O)[C@@H]4[C@H](C3=O)[C@H]3CC[C@@H]4O3)c(C)s2)cc1 (some centres unmarked) [Compound T21],90%
2,CCc1sc(-c2ccc(Cl)cc2)nc1C1C(=O)[C@@H]2[C@H](C1=O)[C@@]1(C)CC[C@]2(C)O1 (some centres unmarked) [Compound T27],90%

# Tested on: Echinochloa crus-galli (ECHCG)
# Experiment: as above
# Type: in vivo
# Settings: Rate 250 g/ha, evaluated 19 or 20 days later, read-out: Pre-Emergence Activity ECHCG (100=total damage to plant; 0=no damage to plant)
# Experimental: as §2
row,Compound,pest or weed control at 250 g/ha
1,COc1ccc(-c2nc(C3C(=O)[C@@H]4[C@H](C3=O)[C@H]3CC[C@@H]4O3)c(C)s2)cc1 (some centres unmarked) [Compound T21],100%
2,CCc1sc(-c2ccc(Cl)cc2)nc1C1C(=O)[C@@H]2[C@H](C1=O)[C@@]1(C)CC[C@]2(C)O1 (some centres unmarked) [Compound T27],70%

# Tested on: Setaria faberi (SETFA)
# Experiment: as above
# Type: in vivo
# Settings: Rate 250 g/ha, evaluated 19 or 20 days later, read-out: Pre-Emergence Activity SETFA (100=total damage to plant; 0=no damage to plant)
# Experimental: as §2
row,Compound,pest or weed control at 250 g/ha
1,COc1ccc(-c2nc(C3C(=O)[C@@H]4[C@H](C3=O)[C@H]3CC[C@@H]4O3)c(C)s2)cc1 (some centres unmarked) [Compound T21],100%
2,CCc1sc(-c2ccc(Cl)cc2)nc1C1C(=O)[C@@H]2[C@H](C1=O)[C@@]1(C)CC[C@]2(C)O1 (some centres unmarked) [Compound T27],100%

# Tested on: Digitaria sanguinalis (DIGSA)
# Experiment: as above
# Type: in vivo
# Settings: Rate 250 g/ha, evaluated 19 or 20 days later, read-out: Pre-Emergence Activity DIGSA (100=total damage to plant; 0=no damage to plant)
# Experimental: as §2
row,Compound,pest or weed control at 250 g/ha
1,COc1ccc(-c2nc(C3C(=O)[C@@H]4[C@H](C3=O)[C@H]3CC[C@@H]4O3)c(C)s2)cc1 (some centres unmarked) [Compound T21],100%
2,CCc1sc(-c2ccc(Cl)cc2)nc1C1C(=O)[C@@H]2[C@H](C1=O)[C@@]1(C)CC[C@]2(C)O1 (some centres unmarked) [Compound T27],100%
